# Test results from US20240182445A1 (ONO PHARMACEUTICAL CO., LTD., priority 2019, published 2024).
# Target: T1, human TREK-1 (Homo sapiens, UniProt O95069)
# T1 construct: expressed in transfected cells
# T1 sequence (O95069 1-426): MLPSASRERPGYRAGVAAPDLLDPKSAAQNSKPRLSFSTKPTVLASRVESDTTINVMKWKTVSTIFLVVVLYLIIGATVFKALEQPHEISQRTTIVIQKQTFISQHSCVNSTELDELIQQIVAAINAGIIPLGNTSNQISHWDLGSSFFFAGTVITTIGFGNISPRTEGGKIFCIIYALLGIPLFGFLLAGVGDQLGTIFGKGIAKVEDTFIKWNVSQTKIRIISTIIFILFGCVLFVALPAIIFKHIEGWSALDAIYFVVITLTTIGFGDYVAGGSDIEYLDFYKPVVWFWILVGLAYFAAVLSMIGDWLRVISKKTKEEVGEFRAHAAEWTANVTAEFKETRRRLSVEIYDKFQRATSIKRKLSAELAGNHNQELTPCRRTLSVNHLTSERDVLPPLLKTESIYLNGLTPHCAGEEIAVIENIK
# Experiment: TREK-1 Thallium (Tl+) flux assay, Method 1
# Format: cell-based
# Conditions: TREK-1 Thallium (Tl+) flux assay, Method 1
# Description: The term “thallium flux assay” herein refers to a fluorescence-based assay used to monitor the activity of TREK channels. Thallium is a congener of potassium that readily fluxes through the pore of TREK channels. Thallium flux is measured using a commercially available, thallium-sensitive fluorescent dye called Thallos. The detail method is described below.
# CHO-K1 cells stably expressing human TREK-1 were plated in 384-well plates, cultured overnight, loaded with Thallos dye the following day. Test compounds or control compound (tert-butyl (3-((4-(benzyloxy)-2-methylphenyl)carbamoyl)-4-chlorophenyl)carbamate) or 0.3% DMSO (vehicle control) which were prepared on separate plates were added to the cell plates and incubated for 10 min, and then the cells were treated with thallium stimulus buffer to initiate thallium flux. To measure the efficacy and potency of test compounds, the change in fluorescence intensity (ΔRatio) and % inhibition were calculated using the following equations:
# ΔRatio=(fluorescence intensity at 25 seconds after thallium addition)/(average of fluorescent intensity before thallium addition)
row,SMILES,IC50
1,"CC(=O)N1CC2(CC(n3ncc(Cl)c3C(=O)Nc3ccc(OCc4ccccc4)cc3C)C2)C1 [Compound 433, 1-(2-acetyl-2-azaspiro[3.3]heptan-6-yl)-N-(4-(benzyloxy)-2-methylphenyl)-4-chloro-1H-pyrazole-5-carboxamide]",6890 nM
2,"Cc1cc(OCc2ccccc2)ccc1NC(=O)c1c(Cl)cnn1C1CC2(C1)CN(C(=O)C(C)C)C2 [Compound 398, N-(4-(benzyloxy)-2-methylphenyl)-4-chloro-1-(2-isobutyryl-2-azaspiro[3.3]heptan-6-yl)-1H-pyrazole-5-carboxamide]",1740 nM

# The next lines start with the values.
row,IC50,SMILES
1,4400 nM,"CC(=O)N1CCC(n2ncc(Cl)c2C(=O)Nc2ncc(-c3ccc(OC(F)F)cc3)cc2C)CC1 [Compound 421, 1-(1-acetylpiperidin-4-yl)-4-chloro-N-(5-(4-(difluoromethoxy)phenyl)-3-methylpyridin-2-yl)-1H-pyrazole-5-carboxamide]"
2,7430 nM,"COc1ccc(-c2cnc(NC(=O)c3c(Cl)cnn3C3CCN(C(C)=O)CC3)c(C)c2)cc1Cl [Compound 434, 1-(1-acetylpiperidin-4-yl)-4-chloro-N-(5-(3-chloro-4-methoxyphenyl)-3-methylpyridin-2-yl)-1H-pyrazole-5-carboxamide]"

# Same assay, conditions: TREK-1 Thallium (Tl+) flux assay; no *^12 (Method 2) mark on these rows
row,SMILES,IC50
1,"Cc1cc(C#Cc2ccc(F)cc2)cnc1NC(=O)c1c(Cl)cnn1CC1CCCN(C(=O)C2COCCO2)C1 (stereo not drawn) [Compound 223, 1-((1-(1,4-dioxane-2-carbonyl)piperidin-3-yl)methyl)-4-chloro-N-(5-((4-fluorophenyl)ethynyl)-3-methylpyridin-2-yl)-1H-pyrazole-5-carboxamide]",340 nM
2,"Cc1cc(C#Cc2ccc(F)cc2)cnc1NC(=O)c1c(Cl)cnn1C1CCN(C(=O)C2COCCO2)C1 (stereo not drawn) [Compound 230, 1-(1-(1,4-dioxane-2-carbonyl)pyrrolidin-3-yl)-4-chloro-N-(5-((4-fluorophenyl)ethynyl)-3-methylpyridin-2-yl)-1H-pyrazole-5-carboxamide]",350 nM
3,"Cc1cc(C#Cc2ccccc2)cnc1NC(=O)c1c(Cl)cnn1-c1ccc2c(c1)OCO2 [Compound 283, 1-(benzol[d][1,3]dioxol-5-yl)-4-chloro-N-(3-methyl-5-(phenylethynyl)pyridin-2-yl)-1H-pyrazole-5-carboxamide]",490 nM
4,"O=C(Nc1c(F)cc(C#Cc2ccccc2)cc1F)c1c(Cl)cnn1C1CCOCC1 [Compound 201, 4-chloro-N-(2,6-difluoro-4-(phenylethynyl)phenyl)-1-(tetrahydro-2H-pyran-4-yl)-1H-pyrazole-5-carboxamide]",310 nM
5,"Cc1cc(C#Cc2ccccc2)cnc1NC(=O)c1c(Cl)cnn1CC1CCN(C(=O)OC(C)(C)C)CC1C (stereo not drawn) [Compound 265, tert-butyl 4-((4-chloro-5-((3-methyl-5-(phenylethynyl)pyridin-2-yl)carbamoyl)-1H-pyrazol-1-yl)methyl)-3-methylpiperidine-1-carboxylate]",430 nM
6,"Cc1cc(C#Cc2ccccc2)cnc1NC(=O)c1c(Cl)cnn1C1CN(C(=O)OC(C)(C)C)C1 [Compound 287, tert-butyl 3-(4-chloro-5-((3-methyl-5-(phenylethynyl)pyridin-2-yl)carbamoyl)-1H-pyrazol-1-yl)azetidine-1-carboxylate]",500 nM
7,"CC(C)(C)OC(=O)N[C@@H]1CC[C@@H](n2ncc(Cl)c2C(=O)Nc2ncc(C#Cc3ccccc3)cc2F)C1 [Compound 221, tert-butyl ((1R,3R)-3-(4-chloro-5-((3-fluoro-5-(phenylethynyl)pyridin-2-yl)carbamoyl)-1H-pyrazol-1-yl)cyclopentyl)carbamate]",340 nM
8,"O=C(Nc1ncc(C#Cc2ccccc2)cc1F)c1c(Cl)cnn1CC1CCCO1 (stereo not drawn) [Compound 366, 4-chloro-N-(3-fluoro-5-(phenylethynyl)pyridin-2-yl)-1-((tetrahydrofuran-2-yl)methyl)-1H-pyrazole-5-carboxamide]",930 nM
9,"Cc1cc(C#Cc2ccccc2)cnc1NC(=O)c1c(Cl)cnn1[C@H]1C[C@H](NC(=O)OC(C)(C)C)C1 [Compound 292, tert-butyl (trans-3-(4-chloro-5-((3-methyl-5-(phenylethynyl)pyridin-2-yl)carbamoyl)-1H-pyrazol-1-yl)cyclobutyl)carbamate]",520 nM
10,"Cc1cc(C#Cc2ccccc2)cnc1NC(=O)c1c(Cl)cnn1C1CC2(C1)CN(C(=O)C(C)C)C2 [Compound 212, 4-chloro-1-(2-isobutyryl-2-azaspiro[3.3]heptan-6-yl)-N-(3-methyl-5-(phenylethynyl)pyridin-2-yl)-1H-pyrazole-5-carboxamide]",330 nM
11,"Cc1cc(OCc2ccccc2)ccc1NC(=O)c1c(Cl)cnn1[C@H]1CC[C@@H](NC(=O)C2CC2)CC1 [Compound 385, N-(4-(benzyloxy)-2-methylphenyl)-4-chloro-1-(cis-4-(cyclopropanecarboxamido)cyclohexyl)-1H-pyrazole-5-carboxamide]",830 nM
12,"Cc1cc(C#Cc2ccc(F)cc2)cnc1NC(=O)c1c(Cl)cnn1CC1CCCN(C(=O)C2CC2)C1 (stereo not drawn) [Compound 271, 4-chloro-1-((1-(cyclopropanecarbonyl)piperidin-3-yl)methyl)-N-(5-((4-fluorophenyl)ethynyl)-3-methylpyridin-2-yl)-1H-pyrazole-5-carboxamide]",460 nM

# Continued, values first:
row,IC50,SMILES
1,850 nM,"Cc1cc(C#Cc2cccs2)cnc1NC(=O)c1c(Cl)cnn1[C@H]1C[C@@H]2CN(C(=O)C(C)(C)C)C[C@@H]2C1 [Compound 354, 4-chloro-1-[(3aR,5s,6aS)-2-(2,2-dimethylpropanoyl)octahydrocyclopenta [c]pyrrol-5-yl]-N-{3-methyl-5-[(thiophen-2-yl)ethynyl]pyridin-2-yl}-1H-pyrazole-5-carboxamide]"
2,310 nM,"CC(=O)N1CC[C@@H](n2ncc(Cl)c2C(=O)Nc2ncc(C#Cc3ccccc3)cc2F)C1 [Compound 203, (R)-1-(1-acetylpyrrolidin-3-yl)-4-chloro-N-(3-fluoro-5-(phenylethynyl)pyridin-2-yl)-1H-pyrazole-5-carboxamide]"

# Same assay, conditions: TREK-1 Thallium (Tl+) flux assay; values without footnote *12 are Method 1
row,SMILES,IC50
1,"CCC(=O)N1CC(n2ncc(Cl)c2C(=O)Nc2ncc(C#Cc3ccccc3)cc2C)C1 [Compound 137, 4-chloro-N-(3-methyl-5-(phenylethynyl)pyridin-2-yl)-1-(1-propionylazetidin-3-yl)-1H-pyrazole-5-carboxamide]",220 nM
2,"CC(=O)N1CCC(CCn2ncc(Cl)c2C(=O)Nc2ncc(C#Cc3ccccc3)cc2F)CC1 [Compound 102, 1-(2-(1-acetylpiperidin-4-yl)ethyl)-4-chloro-N-(3-fluoro-5-(phenylethynyl)pyridin-2-yl)-1H-pyrazole-5-carboxamide]",190 nM
3,"O=C(Nc1ncc(C#Cc2ccccc2)cc1F)c1c(Cl)cnn1C[C@@H]1CCOC1 [Compound 148, (S)-4-chloro-N-(3-fluoro-5-(phenylethynyl)pyridin-2-yl)-1-((tetrahydrofuran-3-yl)methyl)-1H-pyrazole-5-carboxamide]",240 nM

# The next lines start with the values.
row,IC50,SMILES
1,160 nM,"CC(=O)N1CCC(n2ncc(Cl)c2C(=O)Nc2ncc(C#Cc3cccc(F)c3)cc2C)CC1C (stereo not drawn) [Compound 72, 1-(1-acetyl-2-methylpiperidin-4-yl)-4-chloro-N-(5-((3-fluorophenyl)ethynyl)-3-methylpyridin-2-yl)-1H-pyrazole-5-carboxamide]"
2,100 nM,"CC(=O)N1CC[C@H](n2ncc(Cl)c2C(=O)Nc2ncc(C#Cc3ccccc3)cc2C)C[C@@H]1C (single isomer, unassigned) [Compound 31, 1-[(2S,4S)-1-acetyl-2-methylpiperidin-4-yl]-4-chloro-N-[3-methyl-5-(phenylethynyl)pyridin-2-yl]-1H-pyrazole-5-carboxamide or 1-[(2R,4R)-1-acetyl-2-methylpiperidin-4-yl]-4-chloro-N-[3-methyl-5-(phenylethynyl)pyridin-2-yl]-1H-pyrazole-5-carboxamide]"
3,210 nM,"CC(=O)N1CCC(Cn2ncc(Cl)c2C(=O)Nc2ncc(C#Cc3cccs3)cc2C)CC1 [Compound 123, 1-((1-acetylpiperidin-4-yl)methyl)-4-chloro-N-(3-methyl-5-(thiophen-2-ylethynyl)pyridin-2-yl)-1H-pyrazole-5-carboxamide]"
4,60 nM,"CC(=O)N1CCC(n2ncc(Cl)c2C(=O)Nc2ncc(C#Cc3cccs3)cc2C)CC1 [Compound 19, 1-(1-acetylpiperidin-4-yl)-4-chloro-N-(3-methyl-5-(thiophen-2-ylethynyl)pyridin-2-yl)-1H-pyrazole-5-carboxamide]"
5,180 nM,"CCNC(=O)N1CCC(n2ncc(Cl)c2C(=O)Nc2ncc(C#Cc3ccccc3)cc2C)CC1 [Compound 90, 4-(4-chloro-5-((3-methyl-5-(phenylethynyl)pyridin-2-yl)carbamoyl)-1H-pyrazol-1-yl)-N-ethylpiperidine-1-carboxamide]"
6,220 nM,"CC(=O)N1CC[C@H](n2ncc(Cl)c2C(=O)Nc2ncc(C#Cc3ccccc3)cc2F)C1 [Compound 129, (S)-1-(1-acetylpyrrolidin-3-yl)-4-chloro-N-(3-fluoro-5-(phenylethynyl)pyridin-2-yl)-1H-pyrazole-5-carboxamide]"
